The text below walks through data of ChEMBL document CHEMBL1201862, “PubChem BioAssay data set” (2004).

Each structure is given as a SMILES string.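 Compound exposure: 48 hours, 5 concentrations, 96-well plates. GI50 = concentration required for 50% inhibition of growth.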 Active and inactive are the calls of the source. Cut-off read from the data, not from the text of the source: active = GI50 up to about 1.1 µM and inactive = higher.

Among the test systems are ACHN; OVCAR-8; SF-268; K562; NCI/ADR-RES; M14; MDA-MB-435; RXF 393; CCRF-CEM; HL-60; IGROV-1; NCI-H522; EKVX; PC-3; DU-145; HOP-92; SNB-19; HCT-15; BT-549; MOLT-4.
What all share (test): NCI-60 cell line screen, 48 h

On to `O=C(OC12CC3CC(CC(C3)C1)C2)c1ccc(NCc2cc(O)ccc2O)cc1`, for which the GI50 with ACHN is 0.968 µM (active); in the experiment on OVCAR-8, 1.1 µM (active); with SF-268 it was 1.75 µM (inactive); in the experiment on K562, 0.622 µM (active); with NCI/ADR-RES it was 0.637 µM (active); in the experiment with M14 it was 1.44 µM (inactive). Further, the GI50 in the experiment on MDA-MB-435 is 1.27 µM (inactive); in the experiment on RXF 393 it was 0.288 µM (active); in the experiment with CCRF-CEM, 0.0383 µM (active); in the experiment on HL-60 it was 0.0491 µM (active); in the experiment with IGROV-1, 0.109 µM (active); in the experiment on NCI-H522, 0.0776 µM (active). The GI50 in the experiment on EKVX was 0.843 µM (active); with PC-3, 0.667 µM (active); in the experiment on DU-145, 3.85 µM (inactive); in the experiment with HOP-92, 0.34 µM (active); in the experiment with SNB-19, 2.31 µM (inactive); with HCT-15, 0.435 µM. Also, the GI50 in the experiment on BT-549 was 0.333 µM (active); in the experiment with MOLT-4 it was 0.0944 µM (active).
As for `CCN(CC)CCCC(C)Nc1c2ccc(Cl)cc2nc2ccc(OC)cc12` (stereo not given), the GI50 is 2.42 µM (inactive) in the experiment on ACHN; 1.05 µM (active) in the experiment with OVCAR-8; 2.24 µM (inactive) in the experiment with SF-268; 0.824 µM (active) in the experiment with K562; 1.86 µM (inactive) in the experiment with NCI/ADR-RES; 1.81 µM (inactive) with M14. The GI50 in the experiment with MDA-MB-435 was 1.47 µM (inactive); in the experiment on RXF 393, 1.2 µM (inactive); with CCRF-CEM it was 1 µM (active); with HL-60 it was 2.03 µM (inactive); with IGROV-1, 1.76 µM (inactive); in the experiment on NCI-H522, 1.35 µM (inactive). For the same compound, the GI50 in the experiment with EKVX was 4.61 µM (inactive); in the experiment on PC-3, 1.78 µM (inactive); in the experiment with DU-145, 3.56 µM (inactive); in the experiment with HOP-92, 1.14 µM (inactive); in the experiment with SNB-19, 5.36 µM (inactive); in the experiment with HCT-15, 2.29 µM. Further, the GI50 in the experiment with BT-549 was 2.47 µM (inactive); in the experiment with MOLT-4 it was 0.518 µM (active).
`Cc1ccc2ccc3ccc(C)nc3c2n1` [NEOCUPROINE]: the GI50 in the experiment with ACHN is > 100 µM (inactive); with OVCAR-8, > 26.9 µM (inactive); with SF-268 it was > 87.9 µM (inactive); in the experiment on K562 it was 0.542 µM (active); with NCI/ADR-RES, > 100 µM (inactive); with M14, > 22.2 µM (inactive). For the same compound, the GI50 is > 100 µM (inactive) in the experiment with MDA-MB-435; > 42 µM (inactive) in the experiment on RXF 393; 0.59 µM (active) with CCRF-CEM; 0.353 µM (active) with HL-60; 0.429 µM (active) in the experiment on IGROV-1; 74.3 µM (inactive) with NCI-H522. Besides, the GI50 in the experiment on EKVX was > 100 µM (inactive); with PC-3, 2.1 µM (inactive); in the experiment on DU-145 it was > 100 µM (inactive); with HOP-92, > 100 µM (inactive); in the experiment with SNB-19, > 100 µM (inactive); in the experiment with HCT-15, above 71.6 µM. Also, the GI50 was > 100 µM (inactive) in the experiment on BT-549 and 1.34 µM (inactive) in the experiment with MOLT-4.
Regarding `CN(C)CCNS(=O)(=O)c1ccc(N)cc1`, the GI50 with ACHN, with OVCAR-8, in the experiment with SF-268, in the experiment on K562, in the experiment on NCI/ADR-RES and in the experiment with M14 was > 100 µM (inactive) throughout. Further, the GI50 in the experiment on MDA-MB-435, in the experiment with RXF 393, with CCRF-CEM, in the experiment with HL-60, in the experiment on IGROV-1 and with NCI-H522 was > 100 µM (inactive) each time. For the same compound, the GI50 is > 100 µM (inactive) with EKVX; 19.9 µM (inactive) in the experiment with PC-3; > 100 µM (inactive) in the experiment with DU-145; > 100 µM (inactive) with HOP-92; > 100 µM (inactive) in the experiment on SNB-19; above 100 µM with HCT-15. Also, the GI50 with BT-549 and with MOLT-4 was > 100 µM (inactive) throughout.
Regarding `O=C1c2cccnc2C(=O)c2c1nc1ccccc1c2-c1ccc2c3c(nc4ccccc42)C(=O)c2cccnc2-c13`, the GI50 with ACHN was 0.383 µM (active); in the experiment on OVCAR-8, 0.37 µM (active); in the experiment with SF-268, 0.52 µM (active); in the experiment with K562 it was 1.58 µM (inactive); in the experiment with NCI/ADR-RES, 1.45 µM (inactive); with M14 it was 0.405 µM (active). The GI50 in the experiment on MDA-MB-435 is 1.87 µM (inactive); in the experiment with RXF 393, 0.838 µM (active); in the experiment on CCRF-CEM it was 2.07 µM (inactive); in the experiment with HL-60 it was 1.2 µM (inactive); in the experiment with IGROV-1, 0.0728 µM (active); with NCI-H522, 0.692 µM (active). The GI50 with EKVX is 0.94 µM (active); in the experiment on PC-3, 1.44 µM (inactive); in the experiment on DU-145, 0.359 µM (active); in the experiment with HOP-92 it was 10.5 µM (inactive); in the experiment with SNB-19, 1.84 µM (inactive); in the experiment with HCT-15, 0.195 µM. The results for the GI50 in the experiment with BT-549 and in the experiment on MOLT-4 were 2.46 µM (inactive) and 0.638 µM (active), respectively.
For the compound `OCCCNc1[nH]cnc2nncc1-2`, the GI50 in the experiment with ACHN, in the experiment on OVCAR-8, in the experiment with SF-268, in the experiment on K562, with NCI/ADR-RES and in the experiment on M14 was > 100 µM (inactive) in each case. Moreover, the GI50 in the experiment with MDA-MB-435, with RXF 393, in the experiment on CCRF-CEM, with HL-60, in the experiment on IGROV-1 and in the experiment on NCI-H522 was > 100 µM (inactive) throughout. For the same compound, the GI50 was > 100 µM (inactive) in the experiment with EKVX; > 100 µM (inactive) in the experiment with PC-3; > 100 µM (inactive) with DU-145; > 100 µM (inactive) in the experiment on HOP-92; > 100 µM (inactive) in the experiment on SNB-19; above 100 µM with HCT-15. Besides, the GI50 in the experiment on BT-549 and with MOLT-4 was > 100 µM (inactive) each time.
`CC(=O)O[C@H]1C(=O)[C@@]2(C)[C@H]([C@H](OC(=O)c3ccccc3)[C@]3(O)C[C@H](OC(=O)[C@H](O)[C@@H](NC(=O)c4ccoc4)c4ccccc4)C(C)=C1C3(C)C)[C@]1(OC(C)=O)CO[C@@H]1C[C@@H]2O`: the GI50 with ACHN is 0.37 µM (active); in the experiment on OVCAR-8, 0.067 µM (active); in the experiment on SF-268, 0.0325 µM (active); with K562 it was 0.016 µM (active); in the experiment on NCI/ADR-RES it was 44 µM (inactive); with M14 it was 0.09 µM (active). Besides, the GI50 in the experiment with MDA-MB-435 was 0.0071 µM (active); with RXF 393, < 0.01 µM (active); in the experiment with CCRF-CEM, 0.0379 µM (active); in the experiment on HL-60 it was 0.0136 µM (active); in the experiment on IGROV-1, 0.016 µM (active); in the experiment on NCI-H522 it was < 0.01 µM (active). Also, the GI50 in the experiment on EKVX is 0.897 µM (active); in the experiment with PC-3, 0.0212 µM (active); in the experiment on DU-145 it was 0.0624 µM (active); with HOP-92 it was 0.552 µM (active); in the experiment with SNB-19, 0.0946 µM (active); with HCT-15, 0.757 µM. Moreover, the GI50 in the experiment on BT-549 was < 0.01 µM (active); in the experiment on MOLT-4, 0.0332 µM (active).
Turning to `CC(C)c1ccc(C(c2c(O)oc3ccccc3c2=O)c2c(O)oc3ccccc3c2=O)cc1`, the GI50 in the experiment with ACHN was 26.2 µM (inactive); in the experiment with OVCAR-8, 19.1 µM (inactive); in the experiment with SF-268, 25.6 µM (inactive); in the experiment with K562, 18.2 µM (inactive); with NCI/ADR-RES, 22.3 µM (inactive); in the experiment on M14 it was 19.6 µM (inactive). Further, the GI50 was 20.4 µM (inactive) with MDA-MB-435; 21.8 µM (inactive) in the experiment on RXF 393; 11.6 µM (inactive) in the experiment on CCRF-CEM; 6.03 µM (inactive) in the experiment on HL-60; 24.8 µM (inactive) in the experiment on IGROV-1; 20 µM (inactive) in the experiment with NCI-H522. Besides, the GI50 with EKVX was 22.9 µM (inactive); with PC-3, 19 µM (inactive); in the experiment with DU-145, 23.8 µM (inactive); in the experiment with HOP-92, 7.85 µM (inactive); in the experiment with SNB-19 it was 20.6 µM (inactive); in the experiment on HCT-15, 19.1 µM. Besides, the GI50 is 18.1 µM (inactive) in the experiment with BT-549 and 6.55 µM (inactive) in the experiment on MOLT-4.
Consider `COC12C=CC(CC1)C(C)(C)C2=O` (stereo not given), for which the GI50 in the experiment with ACHN, with OVCAR-8, in the experiment with SF-268, in the experiment with K562, in the experiment on NCI/ADR-RES and in the experiment with M14 was > 100 µM (inactive) in each case. The GI50 in the experiment on MDA-MB-435, in the experiment with RXF 393, in the experiment with CCRF-CEM, in the experiment with HL-60, in the experiment with IGROV-1 and with NCI-H522 was > 100 µM (inactive) throughout. Moreover, the GI50 in the experiment on EKVX is > 100 µM (inactive); in the experiment with PC-3 it was > 100 µM (inactive); in the experiment on DU-145 it was > 100 µM (inactive); in the experiment with HOP-92, > 100 µM (inactive); with SNB-19, > 100 µM (inactive); in the experiment with HCT-15, above 100 µM. The GI50 with BT-549 and in the experiment with MOLT-4 was > 100 µM (inactive) each time.
`CC1OC(=O)c2ccccc2NC1=O` (stereo not given): the GI50 in the experiment with ACHN, with OVCAR-8, in the experiment on SF-268, with K562, in the experiment with NCI/ADR-RES and with M14 was > 100 µM (inactive) each time. The GI50 with MDA-MB-435, in the experiment with RXF 393, in the experiment with CCRF-CEM, in the experiment on HL-60, in the experiment on IGROV-1 and in the experiment on NCI-H522 was > 100 µM (inactive) each time. Besides, the GI50 with EKVX is > 100 µM (inactive); in the experiment on PC-3 it was > 100 µM (inactive); in the experiment on DU-145, > 100 µM (inactive); in the experiment with HOP-92, > 100 µM (inactive); with SNB-19, > 100 µM (inactive); in the experiment on HCT-15 it was above 100 µM. Further, the GI50 in the experiment on BT-549 and in the experiment with MOLT-4 was > 100 µM (inactive) throughout.
